Patent US8415308B2, “1′-substituted-carba-nucleoside prodrugs for antiviral treatment” (Gilead Sciences, Inc., priority 2010, dated 2013)
Where two headings read alike, the source gives them in different places.

How the values were obtained:
[1] = system: Replicon cells; assay: HCV EC50 determination in replicon cells (luciferase); format: cell-based; conditions: Hepatitis C virus, 72 h
Method: Replicon cells were seeded in 96-well plates at a density of 8×10^3 cells per well in 100 μL of culture medium, excluding Geneticin. Compound was serially diluted in 100% DMSO and then added to the cells at a 1:200 dilution, achieving a final concentration of 0.5% DMSO and a total volume of 200 μL. Plates were incubated at 37° C. for 3 days, after which culture medium was removed and cells were lysed in lysis buffer provided by Promega's luciferase assay system. Following the manufacturer's instruction, 100 μL of luciferase substrate was added to the lysed cells and luciferase activity was measured in a TopCount luminometer.
The specific activity observed may vary according to and depending on the particular replicon tested, the active compound selected or whether there are present pharmaceutical carriers, as well as the type of formulation and mode of administration employed, and such expected variations or differences in the results are contemplated in accordance with practice of the present invention.

[2] = target: T1, HCV Δ21 NS5b polymerase (Hepatitis C virus genotype 1b, UniProt Q9WMX2); assay: HCV IC50 determination, NS5b polymerase assay; format: biochemical
T1 construct: 75 nM HCV Δ21 NS5b polymerase
Method: Assay Protocol: NS5b polymerase assay (40 μL) was assembled by adding 28 μL polymerase mixture (final concentration: 50 mM Tris-HCl at pH 7.5, 10 mM KCL, 5 mM MgCl2, 1 mM DTT, 10 mM EDTA, 4 ng/μL of RNA template, and 75 nM HCV Δ21 NS5b polymerase) to assay plates followed by 4 μL of compound dilution. The polymerase and compound were pre-incubated at 35° C. for 10 minute before the addition of 8 μL of nucleotide substrate mixture (33P-α-labeled competing nucleotide at KM and 0.5 mM of the remaining three nucleotides). The assay plates were covered and incubated at 35° C. for 90 min. Reactions were then filtered through 96-well DEAE-81 filter plates via vacuum. The filter plates were then washed under vacuum with multiple volumes of 0.125 M NaHPO4, water, and ethanol to remove unincorporated label. Plates were then counted on TopCount to assess the level of product synthesis over background controls. The IC50 value is determined using Prism fitting program.

[3] = replicon cells, 3 days, luciferase activity, read-out: EC50

SMILES	EC50 [1, 3] [µM]	EC50 [1] [µM]	also measured
C[C@@]1(O)[C@H](O)[C@@H](CO)O[C@@]1(C#N)c1ccc2c(N)ncnn12 [Compound 5]	> 89	–	–
CC(C)OC(=O)[C@H](C)NP(=O)(OC[C@H]1O[C@@](C#N)(c2ccc3c(N)ncnn23)[C@](C)(O)[C@@H]1O)Oc1ccccc1 (stereo partly drawn) [Compound 6]	–	0.48 to 1.8	–
C[C@@]1(O)[C@H](O)[C@@H](COP(=O)(O)OP(=O)(O)OP(=O)(O)O)O[C@@]1(C#N)c1ccc2c(N)ncnn12 [Compound 7]	–	–	IC50 [2]: < 1 µM
CC(C)OC(=O)[C@H](C)N[P@](=O)(OC[C@H]1O[C@@](C#N)(c2ccc3c(N)ncnn23)[C@](C)(O)[C@@H]1OC(=O)C(C)C)Oc1ccccc1 [Compound 8A]	–	0.096 to 0.36	–
CC(C)OC(=O)[C@H](C)N[P@@](=O)(OC[C@H]1O[C@@](C#N)(c2ccc3c(N)ncnn23)[C@](C)(O)[C@@H]1OC(=O)C(C)C)Oc1ccccc1 [Compound 8B]	–	0.46 to 1.9	–
CC(C)OC(=O)[C@H](C)NP(=O)(OC[C@H]1O[C@@](C#N)(c2ccc3c(N)ncnn23)[C@](C)(O)[C@@H]1OC(=O)C(C)C)Oc1ccccc1 (stereo partly drawn) [Compound 8]	–	0.14 to 0.52	–
CC(C)OC(=O)[C@H](C)NP(=O)(N[C@@H](C)C(=O)OC(C)C)OC[C@H]1O[C@@](C#N)(c2ccc3c(N)ncnn23)[C@](C)(O)[C@@H]1O [Compound 61]	51	–	–
CC(C)OC(=O)[C@H](C)NP(=O)(N[C@@H](C)C(=O)OC(C)C)OC[C@H]1O[C@@](C#N)(c2ccc3c(N)ncnn23)[C@](C)(O)[C@@H]1OC(=O)C(C)C [Compound 64]	5.38	–	–
CC(=O)O[C@@H]1[C@@H](COP(=O)(N[C@@H](C)C(=O)OC(C)C)N[C@@H](C)C(=O)OC(C)C)O[C@@](C#N)(c2ccc3c(N)ncnn23)[C@]1(C)O [Compound 65]	8.4	–	–
